From PubChem BioAssay (NCI) come the findings set out here.

“And” between values parts separate entries of the source, which are not always exact repeats. Equal values may be shown once.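 How tested: cells in 96-well plates exposed to compound for 48 hours at five concentrations. GI50 marks 50% less growth. Definition used: TGI = concentration required for complete inhibition of growth.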

Among the test systems are ACHN renal; DU-145 prostate; HOP-92 NSCLC; M14 melanoma; MOLT-4 leukemia; NCI/ADR-RES ovarian; SF-295 CNS; SN12C renal; UACC-62 melanoma; UO-31 renal.
Common to all, as to assay: NCI anticancer screen, dose series, 48 h

`C=C(Cl)[C@@](Cl)(CBr)CC[C@@H](Br)C(C)(C)Cl`: the GI50 in the assay with ACHN renal was 0.184 µM; in the assay on DU-145 prostate, 213 nM; in the assay on MOLT-4 leukemia, 17.5 µM; in the assay with NCI/ADR-RES ovarian it was 3050 nM; with UACC-62 melanoma, 4.53 µM; in the assay with UO-31 renal it was 428 nM. In addition, the TGI is 0.562 µM and 0.47 µM with ACHN renal; 1.18 µM and 1.82 µM in the assay with DU-145 prostate; 0.807 µM in the assay on HOP-92 NSCLC; 40.9 µM and 28.8 µM with M14 melanoma; 58.4 µM and 63.8 µM with MOLT-4 leukemia; 2.46 µM and 0.452 µM in the assay on SF-295 CNS. Besides, the TGI with SN12C renal is 17.3 µM; in the assay on UACC-62 melanoma, 24.5 µM and 3.84 µM; in the assay with UO-31 renal, 1.85 µM and 2.01 µM.
For the compound `NC(N)=N/N=C(/c1ccccc1)c1ccccc1F`, the GI50 in the assay on ACHN renal was 4.49 µM; in the assay on DU-145 prostate, 3560 nM; in the assay with HOP-92 NSCLC, 18.3 µM; in the assay on M14 melanoma, 1700 nM; with MOLT-4 leukemia it was 5.57 µM; with NCI/ADR-RES ovarian, 2690 nM. Further, the GI50 in the assay with SF-295 CNS was 2430 nM; in the assay with SN12C renal, 5.98 µM; in the assay on UACC-62 melanoma, 4.54 µM; in the assay on UO-31 renal it was 4480 nM. Moreover, the TGI with ACHN renal is 20 µM; in the assay on DU-145 prostate, 16.6 µM; in the assay on HOP-92 NSCLC, greater than 81.5 µM; in the assay on M14 melanoma, 9.59 µM; in the assay on MOLT-4 leukemia, greater than 100 µM; with NCI/ADR-RES ovarian it was 9.74 µM. Besides, the TGI in the assay on SF-295 CNS is 14.3 µM; in the assay on SN12C renal, 31.3 µM; in the assay with UACC-62 melanoma, 20.7 µM; in the assay with UO-31 renal it was 31.6 µM.
In the case of `O=C(Oc1ccc2c(c1)CN(Cc1ccccc1)CO2)c1ccccc1`, the TGI in the assay on ACHN renal amounted to 32.9 µM; in the assay with DU-145 prostate, 36.7 µM; with HOP-92 NSCLC it was 28.2 µM; with M14 melanoma, 32 µM; with MOLT-4 leukemia, 54.1 µM; in the assay with NCI/ADR-RES ovarian it was 59.3 µM. Moreover, the TGI was 38.4 µM in the assay with SF-295 CNS, 34.1 µM in the assay with SN12C renal, 30.5 µM in the assay with UACC-62 melanoma and 31.8 µM with UO-31 renal.
For `COc1cc(/C=C\c2cc(OC)c(OC)c(OC)c2)cc(NS(=O)(=O)c2ccc(Cl)cc2)c1OC`, the GI50 in the assay on ACHN renal was 0.586 µM; with DU-145 prostate, 507 nM; in the assay on HOP-92 NSCLC, 0.72 µM; with M14 melanoma, 391 nM; in the assay with MOLT-4 leukemia, 0.672 µM; in the assay on NCI/ADR-RES ovarian it was 365 nM. The GI50 was 319 nM with SF-295 CNS, 0.75 µM in the assay with SN12C renal, 0.435 µM in the assay with UACC-62 melanoma and 696 nM in the assay with UO-31 renal. Also, the TGI with ACHN renal was 29.9 µM; in the assay on DU-145 prostate, greater than 100 µM; with HOP-92 NSCLC, 72.3 µM; in the assay with M14 melanoma it was 22.9 µM; in the assay on MOLT-4 leukemia it was 31.9 µM; with NCI/ADR-RES ovarian it was greater than 100 µM. Moreover, the TGI is 84 µM with SF-295 CNS, greater than 100 µM with SN12C renal, 36.7 µM in the assay with UACC-62 melanoma and greater than 100 µM with UO-31 renal.
As for `CCCCC[C@@H](C/C=C/CCC(=O)NC/C(=C/Cl)[C@H]1C(=O)C(C)(C)C(=O)[C@@H](C)[C@@]1(C)O)OC`, the GI50 in the assay with ACHN renal was 18 µM; in the assay with DU-145 prostate, 16800 nM; in the assay on HOP-92 NSCLC, 19.2 µM; in the assay with M14 melanoma, 16900 nM; in the assay with MOLT-4 leukemia, 21 µM; in the assay with NCI/ADR-RES ovarian, 20800 nM. Besides, the GI50 was 13500 nM in the assay with SF-295 CNS, 17.3 µM in the assay with SN12C renal, 15.6 µM with UACC-62 melanoma and 15400 nM with UO-31 renal. The TGI was 32.6 µM in the assay on ACHN renal; 31.8 µM in the assay on DU-145 prostate; 38.2 µM with HOP-92 NSCLC; 31.2 µM in the assay with M14 melanoma; 59.3 µM with MOLT-4 leukemia; 41.3 µM in the assay with NCI/ADR-RES ovarian. Also, the TGI in the assay on SF-295 CNS came out at 26.4 µM; in the assay with SN12C renal, 32 µM; in the assay on UACC-62 melanoma, 29.1 µM; in the assay on UO-31 renal, 28.8 µM.
With `Cc1ccc(C2=C(Cl)C(=O)C(c3ccc(C)cc3)=C(Cl)C2=O)cc1`, the TGI with ACHN renal, in the assay with DU-145 prostate, with HOP-92 NSCLC, with M14 melanoma, in the assay on MOLT-4 leukemia and in the assay with NCI/ADR-RES ovarian was greater than 100 µM in each case. The TGI in the assay with SF-295 CNS, with SN12C renal, in the assay on UACC-62 melanoma and in the assay on UO-31 renal was greater than 100 µM each time.
As for `COc1cc2cc3c(c(O)c2c(O)c1-c1c(OC)cc2cc4c(c(O)c2c1O)C(=O)O[C@H](C)C4)C(=O)O[C@H](C)C3`, the GI50 in the assay on ACHN renal was 24.7 µM; with DU-145 prostate it was 15900 nM; in the assay with HOP-92 NSCLC it was 31.3 µM; in the assay on M14 melanoma, 25700 nM; in the assay with MOLT-4 leukemia, greater than 100 µM; in the assay with NCI/ADR-RES ovarian, 37200 nM. Besides, the GI50 in the assay with SF-295 CNS was 24500 nM; in the assay with SN12C renal it was 18.3 µM; in the assay with UACC-62 melanoma, 17.1 µM; in the assay with UO-31 renal it was greater than 100000 nM. The TGI with ACHN renal is 66.7 µM; with DU-145 prostate, 31.2 µM; in the assay on HOP-92 NSCLC, 74.3 µM; with M14 melanoma it was 57 µM; with MOLT-4 leukemia, greater than 100 µM; in the assay with NCI/ADR-RES ovarian, greater than 100 µM. In addition, the TGI with SF-295 CNS is 78.1 µM; in the assay on SN12C renal it was 38.8 µM; with UACC-62 melanoma, 32.5 µM; in the assay on UO-31 renal, greater than 100 µM.
For the compound `CC1=C(CNO)C2=C(C)C3(CC3)[C@@](C)(O)C(=O)C2=C1`, the GI50 with ACHN renal is 2.25 µM; in the assay with DU-145 prostate, 375 nM; in the assay on HOP-92 NSCLC, 1.12 µM; in the assay on M14 melanoma, 1920 nM; with MOLT-4 leukemia, 3.72 µM; in the assay on NCI/ADR-RES ovarian, 2320 nM. The GI50 in the assay with SF-295 CNS was 982 nM; in the assay on SN12C renal, 2.77 µM; in the assay on UACC-62 melanoma it was 1.8 µM; in the assay with UO-31 renal, 1830 nM. In addition, the TGI is 7.6 µM in the assay with ACHN renal; 5.5 µM in the assay on DU-145 prostate; 4.62 µM in the assay with HOP-92 NSCLC; 5.04 µM with M14 melanoma; greater than 100 µM in the assay on MOLT-4 leukemia; 7.63 µM in the assay with NCI/ADR-RES ovarian. For the same compound, the TGI is 4.42 µM in the assay with SF-295 CNS, greater than 100 µM in the assay on SN12C renal, 3.73 µM with UACC-62 melanoma and 5.87 µM with UO-31 renal.
